Results taken from ChEMBL document CHEMBL3351663, “Discovery of acylurea isosteres of 2-acylaminothiadiazole in the azaxanthene series of glucocorticoid receptor agonists” (Bioorg Med Chem Lett, 2014).

Assays:
Glucocorticoid receptor [1] = target: T1, Glucocorticoid receptor (Homo sapiens, UniProt P04150); assay: Agonist activity at glucocorticoid receptor in human HeLa cells assessed as NP-1 transactivation by luciferase reporter gene assay; assay type: cell-based
T1 sequence (P04150 whole entry): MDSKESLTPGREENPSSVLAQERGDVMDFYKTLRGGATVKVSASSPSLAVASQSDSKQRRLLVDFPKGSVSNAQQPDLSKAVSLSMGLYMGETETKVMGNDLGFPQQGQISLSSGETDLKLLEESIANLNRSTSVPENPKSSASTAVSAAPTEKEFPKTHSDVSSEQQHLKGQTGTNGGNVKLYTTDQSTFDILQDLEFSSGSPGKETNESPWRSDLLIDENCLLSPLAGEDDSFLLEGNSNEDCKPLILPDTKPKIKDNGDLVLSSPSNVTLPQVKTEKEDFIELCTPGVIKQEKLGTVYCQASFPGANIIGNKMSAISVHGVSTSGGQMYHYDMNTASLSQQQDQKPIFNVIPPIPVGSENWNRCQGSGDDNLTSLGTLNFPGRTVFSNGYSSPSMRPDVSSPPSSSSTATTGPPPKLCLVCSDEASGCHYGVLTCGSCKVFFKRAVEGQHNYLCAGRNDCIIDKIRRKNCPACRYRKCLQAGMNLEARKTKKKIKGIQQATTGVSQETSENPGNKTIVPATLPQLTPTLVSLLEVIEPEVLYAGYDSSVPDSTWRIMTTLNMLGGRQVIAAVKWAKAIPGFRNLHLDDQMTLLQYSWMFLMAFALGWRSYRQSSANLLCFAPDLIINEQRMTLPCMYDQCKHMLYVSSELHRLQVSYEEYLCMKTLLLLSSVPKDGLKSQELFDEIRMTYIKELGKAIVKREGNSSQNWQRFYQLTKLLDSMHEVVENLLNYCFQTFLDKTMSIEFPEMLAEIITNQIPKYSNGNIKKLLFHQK

Glucocorticoid receptor [2] = target: T1, Glucocorticoid receptor; assay: Agonist activity at glucocorticoid receptor in human A549 cells assessed as AP-1 transrepression by luciferase reporter gene assay; assay type: cell-based
Glucocorticoid receptor [3] = target: T1, Glucocorticoid receptor; set-up: species or system Blood
Progesterone receptor = target: T2, Progesterone receptor (Homo sapiens, UniProt P06401); assay: Binding affinity to progesterone receptor (unknown origin) by fluorescence polarization assay
T2 sequence (P06401 whole entry): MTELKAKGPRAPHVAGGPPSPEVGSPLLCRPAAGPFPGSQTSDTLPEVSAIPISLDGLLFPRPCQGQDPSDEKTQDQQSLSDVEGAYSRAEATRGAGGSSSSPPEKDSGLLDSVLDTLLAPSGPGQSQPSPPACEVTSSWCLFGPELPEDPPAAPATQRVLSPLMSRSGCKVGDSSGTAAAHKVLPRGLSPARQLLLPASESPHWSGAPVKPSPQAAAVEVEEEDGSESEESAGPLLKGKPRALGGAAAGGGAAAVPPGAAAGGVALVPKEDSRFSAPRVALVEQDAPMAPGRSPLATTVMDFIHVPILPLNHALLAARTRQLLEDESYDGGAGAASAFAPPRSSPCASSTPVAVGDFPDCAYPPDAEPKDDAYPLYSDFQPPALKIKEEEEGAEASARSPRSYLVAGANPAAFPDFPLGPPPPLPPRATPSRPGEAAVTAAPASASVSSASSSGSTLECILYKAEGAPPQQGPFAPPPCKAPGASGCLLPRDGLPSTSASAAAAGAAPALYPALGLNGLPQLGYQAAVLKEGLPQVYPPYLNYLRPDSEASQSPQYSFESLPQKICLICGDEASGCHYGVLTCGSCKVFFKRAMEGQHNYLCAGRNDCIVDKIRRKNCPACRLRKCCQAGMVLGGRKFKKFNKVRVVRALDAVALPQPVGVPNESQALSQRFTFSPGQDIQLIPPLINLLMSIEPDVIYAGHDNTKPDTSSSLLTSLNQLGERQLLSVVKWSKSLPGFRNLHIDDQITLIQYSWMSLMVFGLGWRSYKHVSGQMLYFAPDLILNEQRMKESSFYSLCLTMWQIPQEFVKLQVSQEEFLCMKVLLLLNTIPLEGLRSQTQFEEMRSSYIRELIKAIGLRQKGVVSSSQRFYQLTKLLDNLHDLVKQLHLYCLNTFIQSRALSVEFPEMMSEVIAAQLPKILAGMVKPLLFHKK

Glucocorticoid receptor [4] = target: T1, Glucocorticoid receptor; assay: Agonist activity at glucocorticoid receptor in human A549 cells assessed as E-selectin transrepression by luciferase reporter gene assay; assay type: cell-based
Glucocorticoid receptor [5] = target: T1, Glucocorticoid receptor; assay: Binding affinity to glucocorticoid receptor (unknown origin) by fluorescence polarization assay
Liver microsome [6] = assay: Metabolic stability in rat liver microsomes assessed as compound remaining
Liver microsome [7] = assay: Metabolic stability in human liver microsomes assessed as compound remaining
Liver = assay: Metabolic stability in mouse liver microsomes assessed as compound remaining

Row | Compound | EC50 (Glucocorticoid receptor [1]) | EC50 (Glucocorticoid receptor [2]) | EC50 (Glucocorticoid receptor [3]) | Ki (Progesterone receptor) | EC50 (Glucocorticoid receptor [4]) | Ki (Glucocorticoid receptor [5]) | Stability (Liver microsome [6]) | Stability (Liver microsome [7]) | Stability (Liver)
1 | CC(C)C(=O)NC(=O)C(C)(C)[C@@H]1c2ccc(-c3ccc(C(=O)N4CCOCC4)cc3)nc2Oc2c(F)cccc21 | 1040 nM | 23.7 nM | 389 nM | 5040 nM | 74.8 nM | – | – | – | –
2 | CCNC(=O)NC(=O)C(C)(C)[C@@H]1c2ccc(-c3ccc(C(=O)N4CCOCC4)cc3)nc2Oc2c(F)cccc21 | – | – | – | 2910 nM | – | – | – | – | –
3 | CC(C)(C(=O)NC(=O)NC1CCC1)[C@@H]1c2ccc(-c3ccc(C(=O)N4CCOCC4)cc3)nc2Oc2c(F)cccc21 | 676 nM | 17.5 nM | 2380 nM | 5340 nM | 32.8 nM | 8.7 nM | – | – | –
4 | CC(C)(C(=O)NC(=O)C1CC1)[C@@H]1c2ccc(-c3ccc(C(=O)N4CCOCC4)cc3)nc2Oc2c(F)cccc21 | 177 nM | 18.4 nM | 418 nM | 2040 nM | 17.6 nM | 8.5 nM | – | – | –
5 | C[C@@H]1C[C@H]2[C@@H]3CCC4=CC(=O)C=C[C@]4(C)[C@@]3(F)[C@@H](O)C[C@]2(C)[C@@]1(O)C(=O)CO [DEXAMETHASONE] | – | – | – | 778 nM | – | – | – | – | –
6 | CC(C)(C(=O)NC(N)=O)[C@H]1c2ccccc2Oc2nc(-c3ccc(C(=O)N4CCCC4)cc3)ccc21 | 49.3 nM | 8.7 nM | 207 nM | 2320 nM | 5 nM | 1.9 nM | 49% | 78% | 76%
7 | COc1ccc(CNC(=O)NC(=O)C(C)(C)[C@@H]2c3ccc(-c4ccc(C(=O)N5CCOCC5)cc4)nc3Oc3c(F)cccc32)cc1 | – | – | – | 623 nM | – | – | – | – | –
8 | CC(C)(C(=O)NC(N)=O)[C@@H]1c2ccc(-c3ccc(C(=O)N4CC[C@H](F)C4)cc3)nc2Oc2c(F)cccc21 | 1.3 nM | 0.8 nM | – | 33300 nM | 0.6 nM | 1.2 nM | 67% | 56% | 77%
9 | CC(C)(C(=O)NC(N)=O)[C@@H]1c2ccc(-c3ccc(C(=O)N4CCCC4)nc3)nc2Oc2c(F)cccc21 | 113 nM | 16.5 nM | 211 nM | 1360 nM | 12.2 nM | 2 nM | 86% | 73% | 86%
10 | CC(C)(C(=O)NC(N)=O)[C@@H]1c2ccc(-c3ccc(C(=O)N4CCOCC4)nc3)nc2Oc2c(F)cccc21 | – | – | – | 22.7 nM | – | – | – | – | –
11 | CCN(C)C(=O)c1ccc(-c2ccc3c(n2)Oc2ccccc2[C@@H]3C(C)(C)C(=O)Nc2nncs2)cc1 | 98.5 nM | 17.7 nM | 379 nM | 1830 nM | 6.89 nM | 1.6 nM | – | – | –
12 | CN(C)C(=O)c1ccc(-c2ccc3c(n2)Oc2ccccc2[C@@H]3C(C)(C)C(=O)Nc2nncs2)cc1 | 242 nM | 33.2 nM | 830 nM | 1530 nM | 33.8 nM | 1.9 nM | – | – | –
13 | CC(=O)NC(=O)C(C)(C)[C@@H]1c2ccc(-c3ccc(C(=O)N4CCOCC4)cc3)nc2Oc2c(F)cccc21 | 14 nM | 5 nM | 88 nM | 268 nM | 3.2 nM | 5.9 nM | – | – | –
14 | CC(=O)NC(=O)C(C)(C)[C@@H]1c2ccc(-c3ccc(C(=O)N4CCCC4)cc3)nc2Oc2c(F)cccc21 | 27 nM | 5.1 nM | 218 nM | 12400 nM | 3.6 nM | 2.5 nM | – | – | –
15 | CC(C)(O)c1ccc(-c2ccc3c(n2)Oc2c(F)cccc2[C@@H]3C(C)(C)C(=O)NC(N)=O)cn1 | 107 nM | 21.9 nM | 199 nM | 106 nM | 14.7 nM | 4 nM | 83% | 73% | 76%
16 | CC(C)(C(=O)NC(N)=O)[C@H]1c2ccccc2Oc2nc(-c3ccc(C(=O)N4CCOCC4)cc3)ccc21 | 11 nM | 6.2 nM | 3050 nM | 282 nM | 4.8 nM | 1.5 nM | 86% | 95% | 75%
17 | CN(C)C(=O)NC(=O)C(C)(C)[C@@H]1c2ccc(-c3ccc(C(=O)N4CCOCC4)cc3)nc2Oc2c(F)cccc21 | 8910 nM | 907 nM | – | 10600 nM | 203 nM | 110 nM | – | – | –
18 | CNC(=O)NC(=O)C(C)(C)[C@@H]1c2ccc(-c3ccc(C(=O)N4CCOCC4)cc3)nc2Oc2c(F)cccc21 | 302 nM | 10.7 nM | 1040 nM | 1170 nM | 16.1 nM | 6.9 nM | – | – | –
19 | CC(C)(C(=O)NC(N)=O)[C@@H]1c2ccc(-c3ccc(C(=O)N4CCCC4)cc3)nc2Oc2c(F)cccc21 | 5.3 nM | 1.6 nM | – | 604 nM | 1.4 nM | 0.7 nM | 71% | 89% | 73%
20 | CC(=O)NC(=O)C(C)(C)[C@@H]1c2ccc(-c3ccc(C(=O)N(C)C)cc3)nc2Oc2c(F)cccc21 | 1050 nM | 213 nM | 1890 nM | 12400 nM | 109 nM | 69.4 nM | – | – | –
21 | CC(C)(C(=O)NC(=O)C1CCC1)[C@@H]1c2ccc(-c3ccc(C(=O)N4CCOCC4)cc3)nc2Oc2c(F)cccc21 | 586 nM | 17.5 nM | 2380 nM | 5340 nM | 32.8 nM | 8.7 nM | – | – | –
